Experimental findings from ChEMBL document CHEMBL1201862, “PubChem BioAssay data set” (2004) are described below.

Activity calls are given as the source filed them. For most assays here, no stated cut-off is given here; in the data, actives have a measured EC50 and inactives only a lower limit. Where only a bound is given, the exact number is not on record here.

Broadly, the EC50 is the midpoint of the concentration-response curve. For orientation: AC50 means the concentration giving half of the maximal activity seen. Usually IC50 stands for the concentration at which inhibition is half-maximal.

The target in test [1] is T1, Heat shock factor protein 1 (Mus musculus, UniProt P38532).
T1 sequence (P38532 whole entry): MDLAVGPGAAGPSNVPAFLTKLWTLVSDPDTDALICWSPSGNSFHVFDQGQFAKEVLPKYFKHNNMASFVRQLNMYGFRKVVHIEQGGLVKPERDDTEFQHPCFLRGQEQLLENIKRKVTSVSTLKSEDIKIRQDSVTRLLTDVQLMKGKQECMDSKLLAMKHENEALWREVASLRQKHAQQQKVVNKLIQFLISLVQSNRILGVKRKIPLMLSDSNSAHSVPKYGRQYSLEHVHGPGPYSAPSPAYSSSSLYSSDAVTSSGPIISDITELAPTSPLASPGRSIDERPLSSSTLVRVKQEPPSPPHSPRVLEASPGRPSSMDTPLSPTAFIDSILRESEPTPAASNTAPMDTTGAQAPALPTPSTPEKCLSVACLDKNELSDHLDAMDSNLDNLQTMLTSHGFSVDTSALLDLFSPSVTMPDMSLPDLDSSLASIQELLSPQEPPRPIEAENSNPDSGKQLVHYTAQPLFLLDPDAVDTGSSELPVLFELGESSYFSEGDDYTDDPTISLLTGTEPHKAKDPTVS
As to the kind of experiment: decrease of HSF1-responsive luciferase luminescence – cell-based, NIH3T3, dose retest, confirmation (AID 2382).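 Further: NIH3T3 fibroblasts with HSF1-driven luciferase reporter stressed by proteasome inhibitor MG132; luminescence from HSF1-driven luciferase expression after 8 hours of MG132 stress.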 It counts as functional.

The target of test [2] is T2, Replicative DNA helicase DnaB (Mycobacterium tuberculosis, UniProt P9WMR3).
T2 sequence (P9WMR3 whole entry): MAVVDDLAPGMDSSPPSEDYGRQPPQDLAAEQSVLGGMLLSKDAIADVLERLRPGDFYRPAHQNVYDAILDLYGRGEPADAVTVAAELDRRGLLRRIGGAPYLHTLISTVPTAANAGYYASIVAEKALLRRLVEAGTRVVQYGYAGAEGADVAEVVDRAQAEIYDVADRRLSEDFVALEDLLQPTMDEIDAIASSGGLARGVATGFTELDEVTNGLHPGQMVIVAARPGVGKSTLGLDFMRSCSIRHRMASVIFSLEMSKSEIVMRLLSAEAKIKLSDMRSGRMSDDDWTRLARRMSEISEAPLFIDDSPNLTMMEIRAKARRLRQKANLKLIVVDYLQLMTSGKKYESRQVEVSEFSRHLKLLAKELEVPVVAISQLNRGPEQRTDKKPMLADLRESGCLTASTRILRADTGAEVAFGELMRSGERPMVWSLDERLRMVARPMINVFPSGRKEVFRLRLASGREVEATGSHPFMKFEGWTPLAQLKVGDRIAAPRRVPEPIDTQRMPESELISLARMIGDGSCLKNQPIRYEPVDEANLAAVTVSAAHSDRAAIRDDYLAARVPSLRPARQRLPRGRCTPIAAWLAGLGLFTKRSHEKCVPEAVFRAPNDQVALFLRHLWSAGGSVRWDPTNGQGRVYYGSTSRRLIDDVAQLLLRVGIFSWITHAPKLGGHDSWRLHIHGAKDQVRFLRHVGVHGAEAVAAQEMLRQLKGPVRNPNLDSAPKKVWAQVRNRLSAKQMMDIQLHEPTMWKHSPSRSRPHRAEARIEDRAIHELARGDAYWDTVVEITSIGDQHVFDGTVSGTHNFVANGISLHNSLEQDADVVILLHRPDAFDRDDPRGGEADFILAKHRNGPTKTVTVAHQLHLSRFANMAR
As to the kind of experiment: DnaB intein splicing inhibitors, dose response, biochemical, cell-free fluorescence (AID 449749). In kind it is functional.

The target of a further test is T3, Protein RecA (Mycobacterium tuberculosis, UniProt P9WHJ3).
T3 sequence (P9WHJ3 whole entry): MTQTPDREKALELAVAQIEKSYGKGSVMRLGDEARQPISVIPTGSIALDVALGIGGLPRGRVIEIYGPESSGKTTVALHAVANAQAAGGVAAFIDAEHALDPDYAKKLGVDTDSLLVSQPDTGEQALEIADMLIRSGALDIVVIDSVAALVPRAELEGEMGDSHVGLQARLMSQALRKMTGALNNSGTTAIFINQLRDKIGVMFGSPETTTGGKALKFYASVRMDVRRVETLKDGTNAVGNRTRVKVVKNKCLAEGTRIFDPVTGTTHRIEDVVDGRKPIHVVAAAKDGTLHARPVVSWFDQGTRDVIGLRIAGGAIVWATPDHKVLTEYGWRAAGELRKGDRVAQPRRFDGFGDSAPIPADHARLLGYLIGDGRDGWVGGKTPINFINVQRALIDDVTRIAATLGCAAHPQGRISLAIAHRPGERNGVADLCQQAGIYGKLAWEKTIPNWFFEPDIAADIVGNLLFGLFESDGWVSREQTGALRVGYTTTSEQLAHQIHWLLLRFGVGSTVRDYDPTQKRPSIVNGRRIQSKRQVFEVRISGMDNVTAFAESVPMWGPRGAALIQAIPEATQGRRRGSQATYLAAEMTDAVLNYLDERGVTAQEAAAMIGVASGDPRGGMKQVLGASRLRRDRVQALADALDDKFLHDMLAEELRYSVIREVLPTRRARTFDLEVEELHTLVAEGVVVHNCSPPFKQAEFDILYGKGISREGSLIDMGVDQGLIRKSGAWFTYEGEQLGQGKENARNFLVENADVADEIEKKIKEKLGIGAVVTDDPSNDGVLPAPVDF
The experiment in a line: Fluorescence Cell-Free Homogeneous Dose Retest to Identify Inhibitors of RecA-Intein Splicing Activity. [Related pubchem assays (depositor defined):AID2097, AID2223, AID489010, AID492950]. In kind it is functional.

The target of the next test is Genome polyprotein (dengue virus type 2, UniProt P29990). The experiment in a line: flavivirus cap methylation enzyme inhibition – biochemical, confirmation dose response, primary screen (AID 588689). In kind it is functional.
In test [3] the target is T4, Calpain-2 catalytic subunit (Sus scrofa, UniProt P43367).
T4 sequence (P43367 whole entry): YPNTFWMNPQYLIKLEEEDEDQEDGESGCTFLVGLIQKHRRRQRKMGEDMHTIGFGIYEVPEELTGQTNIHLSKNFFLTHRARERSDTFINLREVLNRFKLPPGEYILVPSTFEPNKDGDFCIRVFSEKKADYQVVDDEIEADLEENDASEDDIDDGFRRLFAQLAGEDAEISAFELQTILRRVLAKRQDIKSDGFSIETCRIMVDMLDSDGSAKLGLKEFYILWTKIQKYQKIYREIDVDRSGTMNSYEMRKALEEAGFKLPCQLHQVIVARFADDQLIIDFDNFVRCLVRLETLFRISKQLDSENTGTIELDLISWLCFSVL
The experiment in a line: m-calpain protease blockers, concentration series – biochemical, fluorogenic peptide substrate, dose response (AID 1420). In kind it is functional.

Test [4] addresses T5, Voltage-gated N-type calcium channel alpha-1B subunit/Amyloid beta A4 precursor protein-binding family A member 1 (Homo sapiens, UniProt Q00975+Q02410). It counts as protein assay.
Test [5] concerns the target T5, Voltage-gated N-type calcium channel alpha-1B subunit/Amyloid beta A4 precursor protein-binding family A member 1. In kind it is protein assay. The source holds these as a separate data set.
A short description of test [6]: luciferase reporter signal suppression in cells – H4 neuroglioma cells, luminescence, dose response (AID 1990). It counts as functional, cell-based. (In general: A reporter such as luciferase makes a cellular process visible.)
The subject of test [7] is BJ. As to the kind of experiment: BJ-TERT fibroblast viability loss – cell-based, RAS-independent, luminescence, dose response (AID 1933). It counts as functional. The settings on record: Homo sapiens.
The nature of test [8]: Luminescence Cell-Based Dose Response HTS to Identify Inhibitors of 5'UTR Stem-Loop Driven Prion Protein mRNA Translation in H4 Neuroglioblastoma Cells. [Related pubchem assays: 1827 (Project Summary), 1813 (Primary HTS)]. In kind it is functional.
Test [9] is described as follows: alpha-synuclein stem-loop luciferase translation blockers – H4 neuroglioma cells, luminescence, confirmation (AID 1988). It counts as functional, cell-based.
Test [10] has as its system BJ. As to the kind of experiment: cells. It counts as functional, cell-based. Particulars: Homo sapiens.
The subject of test [11] is BJ. As to the kind of experiment: BJ-TERT-LT-ST fibroblast viability loss – cell-based, RAS-independent, luminescence, dose response (AID 1935).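 Further: BJ fibroblasts immortalized with TERT plus LT and ST oncogenes.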 Particulars: Homo sapiens. It counts as functional.
A short description of test [12]: DRD fibroblast viability loss – cell-based, non-viral oncogenic, luminescence, dose response (AID 1934). In kind it is functional. Particulars: Homo sapiens.
For another test, the target named is T6, Coagulation factor XII (Homo sapiens, UniProt P00748).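 Further: activated factor XIIa alpha cleaving a fluorogenic AMC peptide substrate; inhibitor potency from loss of enzyme activity.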
T6 sequence (P00748 whole entry): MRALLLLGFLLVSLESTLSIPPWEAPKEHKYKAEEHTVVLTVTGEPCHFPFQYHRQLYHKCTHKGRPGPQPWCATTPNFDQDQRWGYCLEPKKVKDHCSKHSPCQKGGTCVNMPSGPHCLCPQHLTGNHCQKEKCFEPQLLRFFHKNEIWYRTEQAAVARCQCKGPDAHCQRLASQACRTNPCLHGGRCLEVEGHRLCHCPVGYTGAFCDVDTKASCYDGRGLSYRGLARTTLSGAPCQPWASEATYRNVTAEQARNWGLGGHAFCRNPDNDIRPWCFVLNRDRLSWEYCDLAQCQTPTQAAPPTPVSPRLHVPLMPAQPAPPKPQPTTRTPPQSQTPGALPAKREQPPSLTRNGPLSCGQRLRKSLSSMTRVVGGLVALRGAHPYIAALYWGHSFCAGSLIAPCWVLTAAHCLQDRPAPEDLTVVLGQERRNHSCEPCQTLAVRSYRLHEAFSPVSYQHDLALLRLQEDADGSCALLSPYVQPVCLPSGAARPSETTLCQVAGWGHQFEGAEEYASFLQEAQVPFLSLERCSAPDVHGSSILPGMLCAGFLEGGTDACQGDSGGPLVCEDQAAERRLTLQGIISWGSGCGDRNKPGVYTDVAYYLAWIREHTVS
It counts as functional.

A short description of test [13]: NIH-3T3 fibroblast cytotoxicity, dose response, cytotoxicity control, cell-based, fluorescence, Alamar Blue, secondary assay (AID 2327).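 Further: NIH-3T3 mouse fibroblasts cultured with fluconazole at 8 µg/mL.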 In kind it is functional. In general terms: Resazurin is reduced to fluorescent resorufin, in cell work by metabolically active cells.
Test [14] can be described thus: fluconazole-exposed Candida albicans growth modulators – fluorescence, retest, confirmation (AID 2467). In kind it is functional, cell-based.
The target of test [15] is FAD-linked sulfhydryl oxidase ALR (Homo sapiens, UniProt P55789). The experiment in a line: ALR-catalysed DTT oxidation blockers – biochemical, H2O2 detection, luminescence, cherry-pick, dose response (AID 493248).
FAD-linked sulfhydryl oxidase ALR, sequence (P55789 whole entry): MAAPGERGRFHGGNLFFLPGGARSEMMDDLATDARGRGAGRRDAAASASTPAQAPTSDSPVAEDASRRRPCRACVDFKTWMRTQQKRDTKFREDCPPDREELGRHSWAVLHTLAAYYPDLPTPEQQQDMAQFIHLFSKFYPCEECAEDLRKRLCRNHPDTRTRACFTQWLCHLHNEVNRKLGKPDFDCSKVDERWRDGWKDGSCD

T5 sequence (Q00975 whole entry): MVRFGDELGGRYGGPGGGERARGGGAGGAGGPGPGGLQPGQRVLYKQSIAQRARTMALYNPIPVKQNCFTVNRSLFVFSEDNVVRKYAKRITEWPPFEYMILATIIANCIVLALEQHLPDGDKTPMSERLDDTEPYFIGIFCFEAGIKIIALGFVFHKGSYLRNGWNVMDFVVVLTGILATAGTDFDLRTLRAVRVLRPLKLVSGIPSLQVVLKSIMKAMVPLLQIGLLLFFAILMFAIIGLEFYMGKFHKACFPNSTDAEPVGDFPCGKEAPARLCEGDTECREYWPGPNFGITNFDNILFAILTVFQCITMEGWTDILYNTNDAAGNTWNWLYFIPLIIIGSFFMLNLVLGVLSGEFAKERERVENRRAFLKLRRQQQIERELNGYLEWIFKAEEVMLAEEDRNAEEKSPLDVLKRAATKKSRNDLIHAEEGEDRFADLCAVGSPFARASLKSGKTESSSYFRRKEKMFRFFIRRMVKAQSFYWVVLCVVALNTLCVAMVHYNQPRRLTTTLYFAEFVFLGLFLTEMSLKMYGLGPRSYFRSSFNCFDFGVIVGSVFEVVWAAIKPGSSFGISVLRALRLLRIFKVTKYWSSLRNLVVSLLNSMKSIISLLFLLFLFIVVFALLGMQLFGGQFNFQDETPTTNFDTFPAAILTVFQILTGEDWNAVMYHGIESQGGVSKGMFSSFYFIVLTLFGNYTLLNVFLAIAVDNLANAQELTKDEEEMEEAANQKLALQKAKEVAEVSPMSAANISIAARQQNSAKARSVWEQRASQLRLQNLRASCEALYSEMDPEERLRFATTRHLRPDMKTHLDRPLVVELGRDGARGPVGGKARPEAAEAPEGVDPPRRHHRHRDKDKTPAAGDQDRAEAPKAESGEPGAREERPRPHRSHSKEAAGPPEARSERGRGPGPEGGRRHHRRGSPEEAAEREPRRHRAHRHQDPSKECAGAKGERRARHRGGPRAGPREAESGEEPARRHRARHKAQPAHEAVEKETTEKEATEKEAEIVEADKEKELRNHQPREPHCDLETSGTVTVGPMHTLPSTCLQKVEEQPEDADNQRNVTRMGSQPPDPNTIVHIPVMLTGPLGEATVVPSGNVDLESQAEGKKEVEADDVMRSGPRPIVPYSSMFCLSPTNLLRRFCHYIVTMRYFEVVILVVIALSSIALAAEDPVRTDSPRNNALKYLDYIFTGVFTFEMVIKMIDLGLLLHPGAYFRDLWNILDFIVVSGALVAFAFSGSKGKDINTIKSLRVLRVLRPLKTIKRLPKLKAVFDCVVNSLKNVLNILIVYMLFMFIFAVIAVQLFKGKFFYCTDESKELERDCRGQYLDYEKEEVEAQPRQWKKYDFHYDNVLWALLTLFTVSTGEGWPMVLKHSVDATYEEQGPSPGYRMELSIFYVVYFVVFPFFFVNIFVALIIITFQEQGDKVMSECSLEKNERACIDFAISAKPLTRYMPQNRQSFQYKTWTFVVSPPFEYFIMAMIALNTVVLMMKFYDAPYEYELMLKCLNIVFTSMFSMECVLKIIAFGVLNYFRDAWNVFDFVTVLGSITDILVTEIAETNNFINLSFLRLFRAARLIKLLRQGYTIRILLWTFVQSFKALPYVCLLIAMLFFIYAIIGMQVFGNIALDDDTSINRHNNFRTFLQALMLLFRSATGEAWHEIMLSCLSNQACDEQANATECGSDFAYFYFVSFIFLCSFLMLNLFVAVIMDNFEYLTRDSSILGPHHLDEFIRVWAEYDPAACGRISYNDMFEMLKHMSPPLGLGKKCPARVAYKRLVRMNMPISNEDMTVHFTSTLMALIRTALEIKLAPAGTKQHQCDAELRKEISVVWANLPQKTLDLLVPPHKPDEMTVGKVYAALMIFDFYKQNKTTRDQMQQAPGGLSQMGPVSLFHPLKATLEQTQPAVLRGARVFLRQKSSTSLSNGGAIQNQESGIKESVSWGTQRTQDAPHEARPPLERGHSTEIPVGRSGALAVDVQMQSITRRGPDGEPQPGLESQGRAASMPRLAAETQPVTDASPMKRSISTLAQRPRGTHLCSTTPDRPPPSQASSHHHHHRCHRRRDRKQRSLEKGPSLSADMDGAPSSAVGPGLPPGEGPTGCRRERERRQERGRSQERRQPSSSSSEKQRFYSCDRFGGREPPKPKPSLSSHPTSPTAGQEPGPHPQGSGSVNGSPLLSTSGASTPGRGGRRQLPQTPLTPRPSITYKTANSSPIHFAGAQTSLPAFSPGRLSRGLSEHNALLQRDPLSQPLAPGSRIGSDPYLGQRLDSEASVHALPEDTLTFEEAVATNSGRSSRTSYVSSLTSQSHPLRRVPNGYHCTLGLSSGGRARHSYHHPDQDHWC
T5 sequence (Q02410 whole entry): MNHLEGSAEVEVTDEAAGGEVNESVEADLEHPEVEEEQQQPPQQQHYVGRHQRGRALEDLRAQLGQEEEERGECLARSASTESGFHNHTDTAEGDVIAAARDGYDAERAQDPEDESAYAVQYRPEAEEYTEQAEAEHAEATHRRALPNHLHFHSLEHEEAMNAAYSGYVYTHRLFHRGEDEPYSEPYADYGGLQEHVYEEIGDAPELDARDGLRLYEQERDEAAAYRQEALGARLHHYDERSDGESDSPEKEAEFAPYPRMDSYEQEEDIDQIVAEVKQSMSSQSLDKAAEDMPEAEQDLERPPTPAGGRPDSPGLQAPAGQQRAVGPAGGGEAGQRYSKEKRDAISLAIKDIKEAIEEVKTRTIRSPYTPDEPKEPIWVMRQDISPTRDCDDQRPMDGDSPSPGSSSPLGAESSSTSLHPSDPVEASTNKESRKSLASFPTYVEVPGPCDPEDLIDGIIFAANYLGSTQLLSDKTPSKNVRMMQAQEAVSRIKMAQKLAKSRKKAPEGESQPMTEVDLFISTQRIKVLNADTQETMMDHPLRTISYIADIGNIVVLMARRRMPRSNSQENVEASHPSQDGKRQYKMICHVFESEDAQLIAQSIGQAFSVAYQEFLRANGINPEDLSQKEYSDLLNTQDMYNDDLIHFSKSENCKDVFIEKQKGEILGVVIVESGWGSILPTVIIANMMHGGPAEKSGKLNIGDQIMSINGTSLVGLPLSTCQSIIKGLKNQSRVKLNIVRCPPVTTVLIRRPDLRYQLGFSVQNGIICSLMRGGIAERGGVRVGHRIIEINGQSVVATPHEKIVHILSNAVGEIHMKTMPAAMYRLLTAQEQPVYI
Genome polyprotein, sequence (P29990 2492-3391 limits assumed): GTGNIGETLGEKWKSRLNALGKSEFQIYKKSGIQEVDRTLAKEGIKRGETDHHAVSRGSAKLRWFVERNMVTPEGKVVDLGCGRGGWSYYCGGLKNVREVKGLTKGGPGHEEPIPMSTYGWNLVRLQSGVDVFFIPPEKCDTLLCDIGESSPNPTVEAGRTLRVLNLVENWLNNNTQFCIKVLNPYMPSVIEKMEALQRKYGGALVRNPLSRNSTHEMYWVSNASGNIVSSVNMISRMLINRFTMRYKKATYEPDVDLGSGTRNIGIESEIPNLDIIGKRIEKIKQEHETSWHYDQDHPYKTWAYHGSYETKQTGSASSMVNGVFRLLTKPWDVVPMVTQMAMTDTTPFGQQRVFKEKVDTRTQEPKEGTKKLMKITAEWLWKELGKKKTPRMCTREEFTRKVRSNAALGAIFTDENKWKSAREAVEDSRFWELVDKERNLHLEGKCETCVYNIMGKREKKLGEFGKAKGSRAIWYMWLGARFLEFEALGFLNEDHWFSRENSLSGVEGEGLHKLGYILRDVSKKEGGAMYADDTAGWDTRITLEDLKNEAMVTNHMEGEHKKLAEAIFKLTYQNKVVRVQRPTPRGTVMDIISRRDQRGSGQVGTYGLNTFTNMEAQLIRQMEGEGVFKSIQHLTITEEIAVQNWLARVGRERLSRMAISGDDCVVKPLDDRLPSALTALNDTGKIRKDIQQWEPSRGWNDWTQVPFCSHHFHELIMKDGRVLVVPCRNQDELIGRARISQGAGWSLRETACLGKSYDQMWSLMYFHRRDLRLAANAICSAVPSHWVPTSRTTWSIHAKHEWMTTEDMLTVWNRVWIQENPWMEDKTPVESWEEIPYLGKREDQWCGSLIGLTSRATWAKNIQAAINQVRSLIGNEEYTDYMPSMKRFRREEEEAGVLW

As for `Cc1ccc(SCc2n[nH]c3c2C(c2ccc(C)o2)C(C#N)=C(N)O3)cc1` (stereo not drawn), the EC50 in test [1] was > 195 µM (not active); at Protein RecA, 7.85 µM (active). Further, in [2], the AC50 was 61.4 µM (active). Also, the IC50 at Genome polyprotein is > 100 µM (active).
As to `COc1ccc(OC)c(C(c2nnnn2C2CCCC2)N2CCN(c3ccccc3F)CC2)c1` (stereo not drawn), the IC50 in [3] is reported as 1.31 µM (not active).
In the case of `CNC(=S)N=C(Nc1ccc(C)cc1)c1ccccc1`, the IC50 in test [4] was 2.38 µM (active); in test [5], > 50 µM (inactive).
On to `COCCCNc1nnc(Cc2ccc(Cl)cc2)c(O)n1`, for which the EC50 was 9.25 µM (inconclusive) in test [6]; 1.47 µM (active) in the test with BJ [7]; 9.52 µM (active) in test [8]; 6.13 µM (active) in [9]; 24.2 µM (active) in the test with BJ [10]; 0.913 µM (active) in the test on BJ [11]. Also, the EC50 in test [12] is 1.04 µM (active).
As to `N#CC1=C(N)Oc2cc(N)ccc2C1c1cc(Br)cs1` (stereo not drawn), the EC50 in the test with BJ [7] was 11.4 µM (active); in the test on BJ [10] it was 94.1 µM (inconclusive); in the test with BJ [11], 20.6 µM (inconclusive); in test [12], 15.5 µM (inconclusive).
Take `Cc1nc(C)n(CC(O)COc2ccc(C(=O)c3ccccc3)cc2)n1` (stereo not drawn): the IC50 in test [3] was 13.4 µM (not active).
Consider `O=C(CCN1C(=O)/C(=C/c2ccccc2F)SC1=S)NC1C=CS(=O)(=O)C1` (stereo not drawn), for which the IC50 in test [4] was 2.87 µM (active); in [5], > 50 µM (inactive).
As to `COc1ccc(S(=O)(=O)N2CCCCC2)cc1NC(=O)CN(C)C1CCCCC1`, the results for the IC50 (in [3]; on Coagulation factor XII) were 10.8 µM (not active) and > 50 µM (inactive), respectively.
Regarding `CN(C)C(=O)c1cn(-c2ccccc2)nc1-c1cccs1`, the EC50 in test [13] was 24 µM (inconclusive); in test [14], 7.34 µM (active).
As for `Cc1ccc(NC(=O)c2cccc(C(=O)Nc3ccc(C)cc3C(=O)O)c2)c(C(=O)O)c1`, the AC50 in [15] is 2.11 µM (active). For the same molecule, at Genome polyprotein, the IC50 is 22.3 µM (active).
On to `Cn1c(NCc2ccco2)nc2c1c(=O)n(Cc1ccc(Br)cc1)c(=O)n2C`, for which, in test [3], the IC50 was 2.84 µM (not active).
Same read-out and setting: under `NC(=O)c1ccc(-n2nnnc2SCC(=O)Nc2ccccc2-c2ccccc2)cc1` stands 5.14 µM (not active).
As to `CCC(=O)c1ccc(Oc2ccc(C(=O)c3ccc(C)cc3)cc2[N+](=O)[O-])cc1`, the EC50 (in the test with BJ [7]; in the test on BJ [10]; in the test with BJ [11]; in test [12]) was > 150 µM (not active) in each case.
